Laboratory results published in US20250034212A1, “PEPTIDE” (PEPTIDREAM INC., priority 2021, published 2025).
One block for each molecule: values may come before it. Starred links: 1 amine or outer side, 2 acyl side, 3 side chain; linkers in the order of their positions; H or OH if unused. Positions of bridges follow the written chain, without caps; N, C: chain ends. Non-standard residues stand in square brackets, D forms with d. Residues, ends and D or L forms follow the SMILES beside them. Groups on a side chain read outwards from the residue. *: point of attachment. KCOpipzaa = N6-(4-(carboxymethyl)piperazine-1-carbonyl)-L-lysine, O=C(NCCCC[C@H](N[*:1])C(=O)[*:2])N1CCN(CC(=O)[*:3])CC1; Piperazinyl(4-CH2COOH) = O=C(O)CN1CCN(*)CC1; 1Nal = N[C@@H](Cc1cccc2ccccc12)C(=O)O; Gly(NCH2CH2Ph) = O=C(O)CNCCc1ccccc1; 4Pal = N[C@@H](Cc1ccncc1)C(=O)O; CO = O=C([*:1])[*:2]

How the values were obtained:
recombinant human TGF-β1 [1] = target: T1, recombinant human TGF-β1 (Homo sapiens, UniProt P01137); assay: SBE reporter assay in SBE reporter-HEK293 cells, TGF-β1 stimulation; type: cell-based
T1 construct: purchased R&D systems
T1 sequence (P01137 279-390 limits assumed): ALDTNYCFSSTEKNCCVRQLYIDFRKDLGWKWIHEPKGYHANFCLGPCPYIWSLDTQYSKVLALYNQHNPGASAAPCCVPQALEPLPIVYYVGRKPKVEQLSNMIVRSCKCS
Summary of the method: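 SBE luciferase reporter HEK293 cells in 0.5% FBS medium, preincubated 20 min with peptide, then stimulated 18 h with 0.13 nM recombinant human TGF-β1. Luminescence read; inhibition scaled with maximal TGF-β signal as 0% and unstimulated as 100%.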

recombinant human TGF-β2 = target: T2, recombinant human TGF-β2 (Homo sapiens, UniProt P61812); assay: SBE reporter assay in SBE reporter-HEK293 cells, TGF-β2 stimulation; type: cell-based; conditions: FIG. 1
T2 construct: purchased R&D systems
T2 sequence (P61812 303-414 limits assumed): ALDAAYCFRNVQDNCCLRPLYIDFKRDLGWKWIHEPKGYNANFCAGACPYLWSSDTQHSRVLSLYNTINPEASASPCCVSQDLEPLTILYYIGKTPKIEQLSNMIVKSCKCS
Protocol: In addition, the selectivity of each peptide for TGF-β isoforms (TGF-β1 and β2) is checked. For this purpose, the inhibitory activity against TGF-β1 and TGF-β2 was evaluated using the peptide consisting of the amino acid sequence set forth in SEQ ID NO: 13 synthesized in Example 2.
SBE reporter-HEK293 cells were cultured in E-MEM (Wako) containing 10% FBS (Sigma). The cells were detached using Accutase (Innovative Cell Technologies), suspended in E-MEM containing 0.5% FBS, seeded onto a 96-well plate(s) at a concentration of 45,000 cells per well, and cultured overnight. The next day, the peptide was added and allowed to stand for 20 min, and recombinant human TGF-β1 (R&D systems) or recombinant human TGF-β2 (R&D systems) was then added at 0.13 nM and cultured for 18 hours.
Thereafter, luciferase assay ONE-Glo reagent was added to each well and the plate was shaken for 5 min. A SpectraMax Paradigm multimode microplate reader (Molecular Devices) was then used for signal detection. The obtained signals were analyzed by GraphPad Prism. The inhibitory activity of the peptide was calculated while the maximum signal induced by TGF-β was set to 0% inhibition and no stimulation was set to 100% inhibition.

recombinant human TGF-β1 [2] = target: T1, recombinant human TGF-β1; assay: SPR intermolecular interaction test, TGF-β1 immobilized on CM3 sensor chip (Biacore T200); type: binding; conditions: Single Cycle Kinetics, human TGF-β1
[3] = target: T3, recombinant human TGF-β2 (R&D systems) (human, UniProt P61812 303-414); assay: cell-based or functional assay
T3 sequence (looked up): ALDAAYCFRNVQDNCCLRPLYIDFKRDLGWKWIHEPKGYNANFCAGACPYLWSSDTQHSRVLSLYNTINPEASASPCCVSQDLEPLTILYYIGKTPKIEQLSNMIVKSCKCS

[4] = target: T4, recombinant human TGF-β1 (R&D systems) (human, UniProt P01137 279-390); assay: cell-based or functional assay
T4 sequence (P01137 279-390 limits assumed): as the sequence (P01137 279-390 limits assumed) above

[5] = target: T3, recombinant human TGF-β2 (R&D systems); assay: SPR, TGF-β2 immobilised, single cycle kinetics; target TGF-β2, not TGF-β1
[6] = target: T4, recombinant human TGF-β1 (R&D systems); assay: cell-based or functional assay; remark: listed apart in the source
[7] = target: T4, recombinant human TGF-β1 (R&D systems); assay: cell-based or functional assay; remark: listed apart in the source

TGF-β1 antagonist / inhibitory activity (in words) (recombinant human TGF-β1 [1]; SBE reporter assay, FIG. 1 and Tables 2 and 3): inhibits not only TGF-β1 but also TGF-β2
inhibition at 62 pM (recombinant human TGF-β1 [1]; peptide 0.062 nM, TGF-β1 0.13 nM, 18 hours): 4.18%
inhibition at 75 pM (recombinant human TGF-β1 [1]; peptide 0.075 nM, TGF-β1 0.13 nM, 18 hours): 10.1%
inhibition at 0.000185 µM (recombinant human TGF-β1 [1]; peptide 0.185 nM, TGF-β1 0.13 nM, 18 hours): 19.8%
inhibition at 0.00056 µM (recombinant human TGF-β1 [1]; peptide 0.56 nM, TGF-β1 0.13 nM, 18 hours): 48.4%
inhibition at 0.00075 µM (recombinant human TGF-β1 [1]; peptide 0.75 nM, TGF-β1 0.13 nM, 18 hours): 65.2%
inhibition at 0.0017 µM (recombinant human TGF-β1 [1]; peptide 1.7 nM, TGF-β1 0.13 nM, 18 hours): 80.9%
inhibition at 0.005 µM (recombinant human TGF-β1 [1]; peptide 5.0 nM, TGF-β1 0.13 nM, 18 hours): 94.4%
inhibition at 0.0075 µM (recombinant human TGF-β1 [1]; peptide 7.5 nM, TGF-β1 0.13 nM, 18 hours): 96%
inhibition at 0.015 µM (recombinant human TGF-β1 [1]; peptide 15.0 nM, TGF-β1 0.13 nM, 18 hours): 98.7%
inhibition at 0.075 µM (recombinant human TGF-β1 [1]; peptide 75.0 nM, TGF-β1 0.13 nM, 18 hours): 99.5%
inhibitory activity against TGF-β2 (in words) (recombinant human TGF-β2): inhibits not only TGF-β1 but also TGF-β2
Kd (recombinant human TGF-β1 [2]): 0.86 nM
Molecule: CC(C)[C@@H]1NC(=O)CN(CCc2ccccc2)C(=O)[C@H](CC(=O)O)NC(=O)[C@H](CC(=O)O)NC(=O)[C@H](Cc2ccncc2)NC(=O)[C@H](C(C)C)NC(=O)[C@H](CC(N)=O)NC(=O)[C@H](C(C)C)NC(=O)[C@H](C(C)C)NC(=O)[C@H](Cc2cccc3ccccc23)NC(=O)[C@H](Cc2ccccc2)NC(=O)CSC[C@@H](C(=O)NCC(N)=O)NC(=O)[C@H](CCCCNC(=O)N2CCN(CC(=O)O)CC2)NC(=O)[C@H](Cc2c[nH]cn2)NC(=O)[C@H](Cc2ccc(O)cc2)NC(=O)[C@H](Cc2cccc3ccccc23)NC1=O [TGFb1_012] ({CH2CO}-F[1Nal]VVNV[4Pal]DD[Gly(NCH2CH2Ph)]V[1Nal]YHK([CO-Piperazinyl(4-CH2COOH)])CG-NH2; thioether N-16)

IC50 (read off the curve) (SBE reporter assay in SBE reporter-HEK293 cells; TGF-β2 at 0.13 nM) [3]: ~6 nM
IC50 (read off the curve) (SBE reporter assay in SBE reporter-HEK293 cells; TGF-β1 at 0.13 nM) [4]: ~0.7 nM
Kd [5]: 2 nM
SBE reporter % inhibition, peptide 0.075 nM [6]: 10.1%
SBE reporter % inhibition, peptide 0.75 nM [6]: 65.2%
SBE reporter % inhibition, peptide 7.5 nM [6]: 96%
SBE reporter % inhibition, peptide 75.0 nM [6]: 99.5%
SBE reporter % inhibition, peptide 0.062 nM [7]: 4.18%
SBE reporter % inhibition, peptide 0.185 nM [7]: 19.8%
SBE reporter % inhibition, peptide 0.56 nM [7]: 48.4%
SBE reporter % inhibition, peptide 1.7 nM [7]: 80.9%
SBE reporter % inhibition, peptide 5.0 nM [7]: 94.4%
SBE reporter % inhibition, peptide 15.0 nM [7]: 98.7%
B1: TGFb1_012 (peptide)
peptide: {CH2CO}-F[1Nal]VVNV[4Pal]DD[Gly(NCH2CH2Ph)]V[1Nal]YH[KCOpipzaa]CG-NH2
modifications: thioether N-16
SMILES: CC(C)[C@@H]1NC(=O)CN(CCc2ccccc2)C(=O)[C@H](CC(=O)O)NC(=O)[C@H](CC(=O)O)NC(=O)[C@H](Cc2ccncc2)NC(=O)[C@H](C(C)C)NC(=O)[C@H](CC(N)=O)NC(=O)[C@H](C(C)C)NC(=O)[C@H](C(C)C)NC(=O)[C@H](Cc2cccc3ccccc23)NC(=O)[C@H](Cc2ccccc2)NC(=O)CSC[C@@H](C(=O)NCC(N)=O)NC(=O)[C@H](CCCCNC(=O)N2CCN(CC(=O)O)CC2)NC(=O)[C@H](Cc2c[nH]cn2)NC(=O)[C@H](Cc2ccc(O)cc2)NC(=O)[C@H](Cc2cccc3ccccc23)NC1=O
notes: cyclic peptide; C-terminal G is a linker; also called TGF-β1_012
